Measurements: US20100159021A1, “Small Molecule Ligands of the Integrin RGD Recognition Site and Methods of Use” (priority 2008, published 2010)
pIC50: −log10 of the molar value.

Legend:
[1] = system: human breast cancer (MDA-MB-231) cell line; test: anti-proliferative activity in CESCO bellows bottle perfusion model; type: cell-based; conditions: 144 h, MDA MB 231 cells in vitro, exposure for 6 days with daily refreshment, read-out: anti-proliferative (pro-apoptotic) IC50
Method: FIGS. 8A and 8B depict the anti-proliferative activities of unmodified tetrac, unmodified resveratrol (RV) and the combination thereof against a human breast cancer (MDA-MB-231) cell line in vitro. The cell line is estrogen receptor (ER)-negative. The test system is a CESCO bellows bottle perfusion model in which cancer cells adhere to plastic flakes and are then exposed to continuous, recycled flow of chemotherapeutic agent in an oxygenated environment. Polyphenol (10 μM) or tetrac (0.1 μM) in DMEM buffer, supplemented with fetal bovine serum, are refreshed daily. […] Results shown are means of triplicate experiments.
MDA-MB cells were seeded in perfusion CESCO bellow bottles. Cells were refreshed with 1% FBS containing DMEM after 24 h incubation. Cells were then treated with tetrac (10^−7 M), or resveratrol (0.1 mM) or both. Resveratrol was added daily and tetrac was added every three days. Cells were harvested as indicated dates and counted.

MDA-MB-231 cells = test: RNA microarray of differentially-regulated genes; type: cell-based, human; conditions: FIG. 9

Oc1ccc(C=Cc2cc(O)cc(O)c2)cc1 [resveratrol]
pIC50 [1]: 7.00 | expression of pro-apoptotic genes CASP2 and NLRP1 (NALP1) (MDA-MB-231 cells; 10 μM, 24 h): upregulated | expression of tumor markers FTCD (hepatoma) and leukemogenic FUS gene (MDA-MB-231 cells; 10 μM, 24 h): suppressed | expression of cancer-relevant genes FUS, AAKJ, USP6 (Tre6) (MDA-MB-231 cells): downregulated
